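GI50 marks 50% less growth. TGI marks complete inhibition of growth.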
What was measured:
Test in all cases: NCI tumour cell line growth inhibition, 384-well format; in the data active = GI50 below about 0.43 µM; inactive = the rest
[1] = system: NCI-H23 lung
[2] = system: MCF7 breast
[3] = system: UO-31 renal
[4] = system: A498 renal
[5] = system: DU-145 prostate
[6] = system: K-562 leukemia
[7] = system: HT29 colon
[8] = system: T-47D breast
[9] = system: PC-3 prostate
[10] = system: MDA-MB-231 breast
[11] = system: NCI-H322M lung
[12] = system: EKVX NSCLC
[13] = system: HS 578T breast
[14] = system: MDA-MB-435 melanoma
[15] = system: TK-10 renal
[16] = system: OVCAR-4 ovarian
[17] = system: A549 NSCLC
[18] = system: SK-MEL-28 melanoma
[19] = system: SK-MEL-5 melanoma
[20] = system: HCC-2998 colon
[21] = system: NCI-H226 lung
[22] = system: SNB-19 CNS
[23] = system: SF-268 CNS
[24] = system: SR leukemia
[25] = system: UACC-257 melanoma
[26] = system: RPMI-8226 leukemia
[27] = system: NCI/ADR-RES ovarian
[28] = system: KM12 colon
[29] = system: 786-0 renal
[30] = system: CCRF-CEM leukemia
[31] = system: HOP-92 NSCLC
[32] = system: NCI-H460 NSCLC
[33] = system: SN12C renal
[34] = system: COLO 205 colon
[35] = system: HL-60(TB) leukemia
[36] = system: ACHN renal
[37] = system: IGROV1 ovarian
[38] = system: CAKI-1 renal
[39] = system: MDA-MB-468 breast
[40] = system: MOLT-4 leukemia
[41] = system: SNB-75 CNS
[42] = system: HCT-15 colon
[43] = system: LOX IMVI melanoma
[44] = system: NCI-H522 lung
[45] = system: M14 melanoma
[46] = system: SF-539 CNS
[47] = system: OVCAR-5 ovarian
[48] = system: SK-MEL-2 melanoma
[49] = system: HOP-62 NSCLC
[50] = system: UACC-62 melanoma
[51] = system: MALME-3M melanoma
[52] = system: OVCAR-3 ovarian
[53] = system: BT-549 breast
[54] = system: RXF 393 renal
[55] = system: U251 glioblastoma
[56] = system: SF-295 CNS
[57] = system: SW-620 colon
[58] = system: HCT-116 colon
[59] = system: OVCAR-8 ovarian
[60] = system: SK-OV-3 ovarian

COc1cc(OC)c(F)c(COc2cnc(Nc3cnn(CCO)c3)nc2)c1F
4.74 µM: TGI [31]
> 100 µM: TGI [2] | TGI [3] | TGI [4] | TGI [5] | TGI [8] | TGI [9] | TGI [10] | TGI [11] | TGI [12] | TGI [15] | TGI [16] | TGI [17] | TGI [18] | TGI [20] | TGI [22] | TGI [25] | TGI [29] | TGI [36] | TGI [37] | TGI [42]
1830 nM: TGI [27]
658 nM: TGI [44]
3.82 µM: TGI [43]
1070 nM: TGI [7]
2.24 µM: TGI [1]
1.58 µM: TGI [19]
1.24 µM: TGI [26]
0.397 µM: TGI [30]
672 nM: TGI [13]
0.514 µM: TGI [39]
1000 nM: TGI [32]
3.41 µM: TGI [28]
3.68 µM: TGI [23]
3.21 µM: TGI [34]
inactive: GI50 [1] 0.494 µM | GI50 [3] 0.844 µM | GI50 [5] 1.6 µM | GI50 [8] 0.81 µM | GI50 [9] 1.25 µM | GI50 [10] 0.657 µM | GI50 [11] 1790 nM | GI50 [12] 0.828 µM | GI50 [15] 0.714 µM | GI50 [16] 8.52 µM | GI50 [17] 1270 nM | GI50 [18] 741 nM | GI50 [20] 751 nM | GI50 [22] 0.681 µM | GI50 [23] 491 nM | GI50 [25] 2.12 µM | GI50 [27] 0.442 µM | GI50 [31] 0.747 µM | GI50 [33] 1.18 µM | GI50 [34] 0.454 µM | GI50 [36] 1.02 µM | GI50 [37] 0.536 µM | GI50 [43] 0.485 µM
2.29 µM: TGI [21]
active: GI50 [2] 0.408 µM | GI50 [4] 355 nM | GI50 [6] 0.264 µM | GI50 [7] 343 nM | GI50 [13] 0.226 µM | GI50 [14] 177 nM | GI50 [19] 0.383 µM | GI50 [21] 0.26 µM | GI50 [24] 0.0411 µM | GI50 [26] 0.307 µM | GI50 [28] 327 nM | GI50 [29] 0.425 µM | GI50 [30] 0.204 µM | GI50 [32] 0.353 µM | GI50 [35] 0.14 µM | GI50 [38] 353 nM | GI50 [39] 0.234 µM | GI50 [40] 0.187 µM | GI50 [41] 0.14 µM | GI50 [42] 0.386 µM | GI50 [44] 0.257 µM | GI50 [45] 0.239 µM | GI50 [46] 0.34 µM
1500 nM: TGI [46]
6.33 µM: TGI [33]
0.709 µM: TGI [45]
356 nM: TGI [40]
272 nM: TGI [35]
1650 nM: TGI [38]
411 nM: TGI [14]
467 nM: TGI [41]
0.165 µM: TGI [24]
1.1 µM: TGI [6]

OCCn1cc(-c2cnc3nnn(Cc4ccc5ncccc5c4)c3n2)cn1
> 100 µM: TGI [1] | TGI [2] | TGI [3] | TGI [5] | TGI [6] | TGI [47] | TGI [15] | TGI [16] | TGI [21] | TGI [22] | TGI [48] | TGI [29] | TGI [30] | TGI [31] | TGI [33] | TGI [34] | TGI [36] | TGI [37] | TGI [39] | TGI [49] | TGI [45] | TGI [50]
inactive: GI50 [1] > 100 µM | GI50 [2] > 100 µM | GI50 [3] > 100 µM | GI50 [5] > 100 µM | GI50 [6] > 100 µM | GI50 [47] > 100 µM | GI50 [15] > 100 µM | GI50 [16] > 100 µM | GI50 [21] > 100 µM | GI50 [22] > 100 µM | GI50 [48] > 100 µM | GI50 [29] > 100 µM | GI50 [30] > 100 µM | GI50 [31] > 100 µM | GI50 [33] > 100 µM | GI50 [34] > 100 µM | GI50 [36] > 100 µM | GI50 [37] > 100 µM | GI50 [39] > 100 µM | GI50 [49] > 100 µM | GI50 [45] > 100 µM | GI50 [50] > 100 µM

CNC(=O)c1cc(Oc2ccc3nc(N[C@@H]4CCCC[C@H]4O)sc3c2)ccn1
45.3 µM: TGI [39]
23.3 µM: TGI [24]
69.1 µM: TGI [26]
> 100 µM: TGI [1] | TGI [2] | TGI [51] | TGI [3] | TGI [52] | TGI [4] | TGI [5] | TGI [6] | TGI [53] | TGI [8] | TGI [9] | TGI [10] | TGI [11] | TGI [47] | TGI [12] | TGI [15] | TGI [55] | TGI [16] | TGI [56] | TGI [17] | TGI [18] | TGI [20] | TGI [21] | TGI [22] | TGI [23] | TGI [25] | TGI [28] | TGI [29] | TGI [30] | TGI [57] | TGI [31] | TGI [33] | TGI [58] | TGI [34] | TGI [36] | TGI [37] | TGI [59] | TGI [60] | TGI [49] | TGI [42] | TGI [43] | TGI [45]
> 100000 nM: TGI [7] | TGI [13] | TGI [14] | TGI [27] | TGI [32] | TGI [35] | TGI [38] | TGI [40] | TGI [41] | TGI [44] | TGI [46]
inactive: GI50 [1] 45.3 µM | GI50 [2] 34.7 µM | GI50 [51] 56.2 µM | GI50 [3] > 100 µM | GI50 [52] > 100 µM | GI50 [4] > 100000 nM | GI50 [5] > 100 µM | GI50 [6] 35.1 µM | GI50 [53] 60.4 µM | GI50 [7] > 100000 nM | GI50 [8] 33.4 µM | GI50 [9] 71.3 µM | GI50 [10] 60 µM | GI50 [11] > 100000 nM | GI50 [47] > 100 µM | GI50 [12] 58.9 µM | GI50 [13] 46.1 µM | GI50 [54] 25.8 µM | GI50 [14] > 100000 nM | GI50 [15] 84.8 µM | GI50 [55] 73.2 µM | GI50 [16] 40.3 µM | GI50 [56] 41.7 µM | GI50 [17] > 100000 nM | GI50 [18] > 100000 nM | GI50 [19] 19.8 µM | GI50 [20] > 100000 nM | GI50 [21] 35.2 µM | GI50 [22] > 100 µM | GI50 [23] > 100000 nM | GI50 [24] 10.5 µM | GI50 [25] 48.4 µM | GI50 [26] 18.9 µM | GI50 [27] 24.2 µM | GI50 [28] > 100000 nM | GI50 [29] > 100 µM | GI50 [30] 39.3 µM | GI50 [57] > 100 µM | GI50 [31] > 100 µM | GI50 [32] 48 µM | GI50 [33] > 100 µM | GI50 [58] 53 µM | GI50 [34] > 100 µM | GI50 [35] 22.2 µM | GI50 [36] > 100 µM | GI50 [37] > 100 µM | GI50 [59] 59 µM | GI50 [60] > 100 µM | GI50 [38] > 100000 nM | GI50 [39] 12.3 µM | GI50 [40] 31.7 µM | GI50 [41] 68.8 µM | GI50 [49] 51.1 µM | GI50 [42] 34.4 µM | GI50 [43] 72.2 µM | GI50 [44] 59 µM | GI50 [45] > 100 µM | GI50 [46] 89.1 µM
42.2 µM: TGI [19]
83.2 µM: TGI [54]
